Results taken from article PMC7179450, “Primary Human Hepatocytes, But not HepG2 or Balb/c 3T3 Cells, Efficiently Metabolize Salinomycin and Are Resistant to Its Cytotoxicity” (Molecules, 2020).
Where two headings read alike, the source gives them in different places.

Legend:
turkeys = settings: cited from earlier work
HepG2 cells [1] = experiment: MTT assay, cytotoxicity in HepG2; format: cell-based; settings: Homo sapiens, mean ± SEM, n = 3, read-out: EC50 (effective concentration)
Description: (§1) The HepG2 cell line was purchased from the American Type Culture Collection (ATCC® HB-8065™). The cells were cultured in Minimum Essential Medium Eagle (MEME) (Sigma–Aldrich Co. (St. Louis, MO, USA)). Normal murine embryonic fibroblasts, Balb/c 3T3 clone A31 cell line (gift from Department of Swine Diseases of the National Veterinary Research Institute in Pulawy) was cultured in Dulbecco’s Modified Eagle’s Medium (DMEM) (Invitrogen Corporations (Paisley, UK)). The media were supplemented with 10% BCS (Balb/c 3T3), 10% FBS (HepG2), 1% L-glutamine, and 1% antibiotic solution. The cells were maintained in 75 cm^2 cell culture flasks in humidified incubator at 37 °C, in an atmosphere of 5% CO2. […] The initial cell viability was determined with the trypan blue exclusion test. […]
(§2) The concentration ranges of the drugs were chosen according to their solubility and their plasma level. […] The cytotoxicity was assessed after 24 and 48 h of exposure of cell lines or after 12 and 24 h exposure of PHH. […]
(§3) The metabolic activity of living cells was assessed by measuring the activity of dehydrogenases. […] The plate was shaken for 15 min at room temperature and transferred to a microplate reader to measure the absorbance at 570 nm, using a blank as a reference. Cytotoxicity was expressed as a percentage of the negative control (0.1% or 0.2% DMSO).

[2] = system: primary human hepatocytes (PHH); experiment: LDH leakage assay in primary human hepatocytes; format: cell-based; settings: Hepatocyte, mean ± SEM, n = 3, read-out: EC50 (effective concentration)
Description: (§4) Cryopreserved PHH were purchased from the Primacyt GmbH (Schwerin, Germany). Two different lots were chosen based on CYP activity. The donor was a person. The post-thaw viability was 94.6% for lot HH160531 (used in two repetitions) and 85.0% for lot HH130805. The initial cell viability was determined with the trypan blue exclusion test. The cells were thawed and purified using the Plating and Thawing Kit (Primacyt GmbH). Purified hepatocytes were resuspended in Hepatocyte Plating Medium (Primacyt GmbH) and seeded on collagen-coated 96-well plates at a density of 9 × 10^5 cell/mL and incubated at 37 °C with 5% CO2. After 6 h of incubation, the medium was removed and the cells were washed with PBS. Then Human Hepatocyte Maintenance Medium (HHMM) (Primacyt GmbH) with the studied drugs was added to hepatocytes (100 µL/well). […]
as §2
(§5) The integrity of the plasma membrane was assessed through the test of lactate dehydrogenase (LDH) release, which was monitored using a commercially available Cytotoxicity Detection Kit (LDH) (Roche Diagnostics, Basel, Switzerland). […] The absorbance was measured at 492 nm in a microplate reader using a blank as a reference.

Balb/c 3T3 cells = experiment: LDH leakage assay in Balb/c 3T3; format: cell-based; settings: Mus musculus, BALB/c3T3, Balb/c 3T3, LDH, mean ± SEM, n = 3, read-out: EC50 (effective concentration)
Description: as §1, §2, §5

[3] = system: primary human hepatocytes (PHH); experiment: NRU assay (neutral red uptake, lysosomal activity) in primary human hepatocytes; format: cell-based; settings: for EC50: Homo sapiens, Hepatocyte, mean ± SEM, n = 3, read-out: EC50 (effective concentration)
Description: Cryopreserved PHH were purchased from the Primacyt GmbH (Schwerin, Germany). Two different lots were chosen based on CYP activity. The donor was a person. The post-thaw viability was 94.6% for lot HH160531 (used in two repetitions) and 85.0% for lot HH130805. The initial cell viability was determined with the trypan blue exclusion test. The cells were thawed and purified using the Plating and Thawing Kit (Primacyt GmbH). Purified hepatocytes were resuspended in Hepatocyte Plating Medium (Primacyt GmbH) and seeded on collagen-coated 96-well plates at a density of 9 × 10^5 cell/mL and incubated at 37 °C with 5% CO2. After 6 h of incubation, the medium was removed and the cells were washed with PBS. Then Human Hepatocyte Maintenance Medium (HHMM) (Primacyt GmbH) with the studied drugs was added to hepatocytes (100 µL/well). The culture conditions were kept according to the manufacturer’s protocol.
(§6) The concentration ranges of the drugs were chosen according to their solubility and their plasma level. Each drug was dissolved in DMSO. The final concentration of DMSO was 0.1% or 0.2% in the medium for both samples and corresponding controls. […] All drug solutions in medium were freshly prepared and protected from light. SAL was tested in seven concentrations from 0.39 to 25 µg/mL. Tiamulin was added in two concentrations (1 and 10 µg/mL) or just one concentration (1 µg/mL) to cell lines or human hepatocytes, respectively. Prednisolone was tested in one concentration—1 µg/mL independent of the type of cells. […] The cytotoxicity was assessed after 24 and 48 h of exposure of cell lines or after 12 and 24 h exposure of PHH. […]
The assay, based on staining of living cells by neutral red (NR), was performed according to the protocol described by Borenfreund and Puerner. […] After 10 min of shaking, the absorbance of the dissolved NR was measured at 540 nm using a blank as a reference. Cytotoxicity was expressed as a percentage of the negative control (0.1% or 0.2% DMSO).

[4] = system: primary human hepatocytes (PHH); experiment: MTT assay, cytotoxicity in primary human hepatocytes; format: cell-based; settings: Hepatocyte, mean ± SEM, n = 3, read-out: EC50 (effective concentration)
Description: as §4, §2, §3

horses = settings: cited from earlier work
HepG2 cells [5] = experiment: TPC assay in HepG2; format: cell-based, human; settings: for EC50: Homo sapiens, read-out: EC50 (effective concentration)
Description: The HepG2 cell line was purchased from the American Type Culture Collection (ATCC® HB-8065™). The cells were cultured in Minimum Essential Medium Eagle (MEME) (Sigma–Aldrich Co. (St. Louis, MO, USA)). Normal murine embryonic fibroblasts, Balb/c 3T3 clone A31 cell line (gift from Department of Swine Diseases of the National Veterinary Research Institute in Pulawy) was cultured in Dulbecco’s Modified Eagle’s Medium (DMEM) (Invitrogen Corporations (Paisley, UK)). The media were supplemented with 10% BCS (Balb/c 3T3), 10% FBS (HepG2), 1% L-glutamine, and 1% antibiotic solution. The cells were maintained in 75 cm^2 cell culture flasks in humidified incubator at 37 °C, in an atmosphere of 5% CO2. The medium was refreshed every two or three days and the cells were trypsinized by 0.25% trypsin–0.02% EDTA after reaching 70–80% confluence. The initial cell viability was determined with the trypan blue exclusion test. Single cell suspensions were prepared and adjusted to a density of 2 × 10^5 cell/mL (HepG2) and 1 × 10^5 cell/mL (Balb/c 3T3). The cell suspension was transferred to 96-well plates (100 µL/well) and incubated for 24 h before exposure to the studied drugs.
as §6, with “respectively.” for “respectively. Prednisolone was tested in one concentration—1 µg/mL independent of the type of cells.”
The assay was based on staining total cellular protein [14]. […] The absorbance was measured at 595 nm in a microplate reader using blank as a reference. Cytotoxicity was expressed as a percentage of the negative control (0.1% or 0.2% DMSO).

CC[C@@H](C(=O)[C@@H](C)[C@@H](O)[C@H](C)[C@@H]1O[C@@H]([C@@H](CC)C(=O)O)CC[C@@H]1C)[C@H]1O[C@]2(C=C[C@@H](O)[C@]3(CC[C@@](C)([C@H]4CC[C@](O)(CC)[C@H](C)O4)O3)O2)[C@H](C)C[C@@H]1C [SAL, salinomycin]
LD50 (turkeys): 0.6 mg/kg b.w.
EC50 (HepG2 cells [1]; 24 h exposure): 15.4 ± 1.7 µg/mL
EC50 (HepG2 cells [1]; 48 h exposure): 12.9 ± 1.4 µg/mL
EC50 ([2]; 12 h exposure): 12.9 ± 3.2 µg/mL
EC50 ([2]; 24 h exposure): 11.3 ± 0.7 µg/mL
EC50 (Balb/c 3T3 cells; 24 h exposure): > 25 µg/mL
EC50 (Balb/c 3T3 cells; 48 h exposure): 23.1 ± 0.8 µg/mL
EC50 ([3]; 12 h exposure): 20.4 ± 1.9 µg/mL
EC50 ([3]; 24 h exposure): 19.8 ± 1.6 µg/mL
concentration at which SAL first affected lysosomal activity ([3]; after 24 h (Figure S1)): 1.56 µg/mL
EC50 ([4]; 12 h exposure): > 25 µg/mL
EC50 ([4]; 24 h exposure): > 25 µg/mL
LD50 (horses): 0.6 mg/kg b.w.
lowest concentration with significant effect on total protein content (HepG2 cells [5]; HepG2, 24 h, SAL alone or in both drug combinations (Figure S2)): 0.39 µg/mL
EC50 (HepG2 cells [5]; HepG2, 24 h): 13.3 ± 2.5 µg/mL
EC50 (HepG2 cells [5]; HepG2, 48 h): 11.3 ± 1.3 µg/mL
